Holding throughout (assay): DTP human tumour cell line panel, 48 h
Experiment [1] concerns NCI-H23.
For experiment [2], the system named is OVCAR-3.
For experiment [3], the system named is RXF 393.
Experiment [4] has as its system OVCAR-8.
Experiment [5] has as its system HCC 2998.
The subject of experiment [6] is OVCAR-4.
Experiment [7] concerns SW-620.
The test system of experiment [8] is NCI-H226.
The test system of experiment [9] is SF-268.
The test system of experiment [10] is KM12.
Experiment [11] has as its system COLO 205.
Experiment [12] relates to HCT-15.
In experiment [13] the test system is SF-295.
Experiment [14] deals with U-251.
For experiment [15], the system named is HT-29.
For experiment [16], the system named is CAKI-1.

Molecules are shown by their SMILES.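 All cell lines were grown in 96-well plates and treated with compound for 48 hours. Here, GI50 denotes the concentration required for 50% inhibition of growth.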 The source made the active and inactive calls. Cut-off read from the data, not from the text of the source: active = GI50 up to about 1.1 µM and inactive = higher. A value given as a limit tells only on which side of the number the result lay.

With `CC1(C)OCN(c2ccc(N3CCOCC3)cc2)Cn2c1nc1ccccc12`, the GI50 in experiment [1] was > 100 µM (inactive); in experiment [2], > 100 µM (inactive); in experiment [3], 39.1 µM (inactive); in experiment [4], > 100 µM (inactive); in experiment [5] it was > 100 µM (inactive); in experiment [6], 29.6 µM (inactive). Moreover, the GI50 was 34.1 µM (inactive) in experiment [7]; 55.3 µM (inactive) in experiment [8]; > 100 µM (inactive) in experiment [9]; > 100 µM (inactive) in experiment [10]; > 100 µM (inactive) in experiment [11]; over 100 µM in experiment [12]. The GI50 in [13], in experiment [14] and in experiment [15] was > 100 µM (inactive) each time.
In the case of `C/C(CN1C(=O)c2ccccc2C1=O)=N\NS(=O)(=O)c1ccc(Cl)cc1`, the GI50 in experiment [1], in experiment [2], in [4], in experiment [16], in experiment [5] and in [6] was > 100 µM (inactive) throughout. Moreover, the GI50 in experiment [7] is > 100 µM (inactive); in [8] it was > 100 µM (inactive); in experiment [10], > 100 µM (inactive); in experiment [11], > 100 µM (inactive); in experiment [12] it was over 100 µM; in [13] it was > 100 µM (inactive). Further, the GI50 in [14] and in experiment [15] was > 100 µM (inactive) in each case.
Regarding `COc1c(C2=NC(C(C)C)CO2)ccc2ccccc12` (configuration not stated), the GI50 was 34.6 µM (inactive) in experiment [1]; 37.2 µM (inactive) in experiment [2]; 16.4 µM (inactive) in [3]; 41.5 µM (inactive) in experiment [4]; 61.5 µM (inactive) in experiment [16]; 23.7 µM (inactive) in experiment [5]. The GI50 in [6] is 31.7 µM (inactive); in experiment [7], 45 µM (inactive); in [8], 30.6 µM (inactive); in experiment [9], 29.6 µM (inactive); in experiment [10], 28.1 µM (inactive); in [11], 41.2 µM (inactive). For the same compound, the GI50 in experiment [12] was 5.11 µM; in experiment [13], 26.7 µM (inactive); in experiment [15], 24.3 µM (inactive).
For the compound `CC(C)[C@@H]1C=C(c2ccccc2)c2ccccc2C1C(C#N)(C#N)C(C)C` (some centres not stated), the GI50 is 76 µM (inactive) in experiment [1]; 78.9 µM (inactive) in experiment [2]; > 100 µM (inactive) in experiment [3]; > 100 µM (inactive) in experiment [4]; 90.4 µM (inactive) in experiment [5]; 82.4 µM (inactive) in [6]. For the same compound, the GI50 was > 100 µM (inactive) in [7]; > 100 µM (inactive) in [8]; > 100 µM (inactive) in experiment [9]; > 100 µM (inactive) in experiment [10]; > 100 µM (inactive) in experiment [11]; over 100 µM in experiment [12]. The figures for the GI50 in experiment [13], in [14] and in experiment [15] were > 100 µM (inactive), > 100 µM (inactive) and 68.7 µM (inactive), respectively.
Turning to `Cc1ccc(Nc2nc3c(s2)C(=O)c2ccccc2C3=O)cc1`, the GI50 was 1.82 µM (inactive) in experiment [1]; 1.52 µM (inactive) in [2]; 2.18 µM (inactive) in experiment [4]; 1.63 µM (inactive) in experiment [16]; 2.01 µM (inactive) in experiment [5]; 1.55 µM (inactive) in experiment [6]. For the same compound, the GI50 is 1.69 µM (inactive) in experiment [7]; 19.4 µM (inactive) in [8]; 1.9 µM (inactive) in experiment [9]; 1.55 µM (inactive) in experiment [10]; 12.3 µM (inactive) in experiment [11]; 1.94 µM in experiment [12]. Moreover, the figures for the GI50 in [13], in experiment [14] and in experiment [15] were 1.6 µM (inactive), 1.89 µM (inactive) and 3.18 µM (inactive), respectively.
Consider `CCc1c(OC(C)=O)c2c(NC3OC(COC(C)=O)C(OC(C)=O)C(OC(C)=O)C3OC(C)=O)nc(OC)nc2oc1=O` (configuration not stated), for which the GI50 in experiment [1], in experiment [2], in experiment [3], in experiment [4], in experiment [16] and in experiment [5] was > 100 µM (inactive) throughout. In addition, the GI50 in experiment [6] is > 100 µM (inactive); in [7] it was > 100 µM (inactive); in [8], > 100 µM (inactive); in [10], > 100 µM (inactive); in [11] it was > 100 µM (inactive); in experiment [12], over 100 µM. Moreover, the GI50 in experiment [13], in experiment [14] and in [15] was > 100 µM (inactive) in each case.
Turning to `CC(=O)OC12CCCCC1C1(CCCC1)NC2=O` (configuration not stated), the GI50 in [1], in [2], in [3], in [4], in experiment [5] and in experiment [6] was > 100 µM (inactive) in each case. For the same compound, the GI50 in experiment [7] is > 100 µM (inactive); in experiment [8], > 100 µM (inactive); in [9] it was > 100 µM (inactive); in experiment [10], > 100 µM (inactive); in experiment [12] it was over 100 µM; in [13], > 100 µM (inactive). Moreover, the GI50 in experiment [14] and in experiment [15] was > 100 µM (inactive) each time.
For `CC(C)N(C(=O)C12C3C4C5C3C1(C(=O)O)C5C42)C(C)C` (configuration not stated), the GI50 in experiment [1], in experiment [2], in experiment [4], in experiment [16], in [5] and in [6] was > 100 µM (inactive) each time. The GI50 in experiment [7] was > 100 µM (inactive); in [9] it was > 100 µM (inactive); in [10] it was > 100 µM (inactive); in [11] it was > 100 µM (inactive); in [12], over 100 µM; in experiment [13], > 100 µM (inactive). Further, the GI50 in experiment [14] and in [15] was > 100 µM (inactive) each time.
Take `NS(=O)(=O)c1ccc(NC(=O)c2cccc3c(=O)c4ccccc4[nH]c23)cc1`: the GI50 was 67.3 µM (inactive) in experiment [1]; > 100 µM (inactive) in experiment [2]; > 100 µM (inactive) in experiment [4]; > 100 µM (inactive) in [16]; > 100 µM (inactive) in [5]; 29.6 µM (inactive) in experiment [6]. Further, the GI50 was 78.9 µM (inactive) in experiment [7]; 23.4 µM (inactive) in experiment [8]; 30.6 µM (inactive) in experiment [9]; 22.2 µM (inactive) in [10]; 37.2 µM (inactive) in experiment [11]; over 100 µM in [12]. For the same compound, the GI50 in experiment [13] is > 100 µM (inactive); in [14], 48.4 µM (inactive); in experiment [15], > 100 µM (inactive).
As for `COc1cccc(N2C(=O)[C@H]3[C@H]4CC(C(C)(C)C)CC[C@H]4c4c([nH]c5ccccc45)[C@H]3C2=O)c1` (some centres not stated), the GI50 in [1] was 19.2 µM (inactive); in [2], 15.7 µM (inactive); in experiment [3] it was 21.1 µM (inactive); in [4], 14.9 µM (inactive); in experiment [16] it was 17.2 µM (inactive); in experiment [5] it was 28.4 µM (inactive). The GI50 in [7] was 17.4 µM (inactive); in experiment [8] it was 22.1 µM (inactive); in experiment [9], 27.3 µM (inactive); in experiment [10] it was 39 µM (inactive); in experiment [11], 15.5 µM (inactive); in [12], 34.6 µM. The values for the GI50 in experiment [13] and in [15] were 15.1 µM (inactive) and 21.3 µM (inactive), respectively.
On to `O=[N+]([O-])c1nccn1COCCI`, for which the GI50 in [1], in experiment [2], in [4], in experiment [16], in experiment [6] and in experiment [7] was > 100 µM (inactive) in each case. Besides, the GI50 in [8] was > 100 µM (inactive); in [9], > 100 µM (inactive); in experiment [10], > 100 µM (inactive); in experiment [11] it was > 100 µM (inactive); in [12], over 100 µM; in [13] it was > 100 µM (inactive). For the same compound, the GI50 in experiment [14] and in experiment [15] was > 100 µM (inactive) throughout.
With `COc1ccc(CC2NCCc3c2[nH]c2ccccc32)cc1` (configuration not stated), the GI50 in [2] was 64.6 µM (inactive); in [4], > 100 µM (inactive); in experiment [5], 23.7 µM (inactive); in [6] it was 54 µM (inactive); in [7], 51.9 µM (inactive); in [8], > 100 µM (inactive). Moreover, the GI50 in experiment [9] is 79.6 µM (inactive); in experiment [10] it was 58.1 µM (inactive); in experiment [11] it was 17.4 µM (inactive); in experiment [12], 52.4 µM; in experiment [13] it was 96.6 µM (inactive); in experiment [14], 82 µM (inactive). The GI50 in [15] is 28.3 µM (inactive).
Take `O=C(/C(=C/c1ccccc1)c1ccccc1)N1c2ccccc2CC1c1c[nH]c2ccccc12` (configuration not stated): the GI50 is 15 µM (inactive) in experiment [1]; 3.05 µM (inactive) in experiment [2]; 6.07 µM (inactive) in experiment [3]; > 100 µM (inactive) in experiment [4]; 36.1 µM (inactive) in [16]; > 100 µM (inactive) in experiment [5]. Moreover, the GI50 is 37.8 µM (inactive) in experiment [6]; 59.2 µM (inactive) in [7]; 41.1 µM (inactive) in experiment [8]; 10.2 µM (inactive) in [10]; 6.27 µM (inactive) in experiment [11]; 7.76 µM in experiment [12]. In addition, the GI50 was 7.62 µM (inactive) in experiment [13], 9.53 µM (inactive) in experiment [14] and 76.4 µM (inactive) in [15].
`CC1CCC2(OCCO2)[C@]2(C)CC(O)C(=O)C=C12` (some centres not stated): the GI50 in experiment [1], in [2], in experiment [3], in [4], in experiment [5] and in [7] was > 100 µM (inactive) throughout. The GI50 is > 100 µM (inactive) in experiment [8]; > 100 µM (inactive) in experiment [9]; > 100 µM (inactive) in experiment [10]; > 100 µM (inactive) in experiment [11]; over 100 µM in experiment [12]; > 100 µM (inactive) in [13]. Also, the GI50 in experiment [14] and in experiment [15] was > 100 µM (inactive) in each case.

By GI50 is commonly meant the concentration at which growth is held to half of that of the control.

These data come from ChEMBL document CHEMBL1201862, “PubChem BioAssay data set” (2004).
